Experimental data published in BigSolDB 2.1.

Nc1cccnn1
Conditions	solubility (mole fraction)
in acetone, 288.25 K	0.0068
in acetone, 293.15 K	0.00801
in acetone, 298.35 K	0.00907
in acetone, 303.05 K	0.0102
in acetone, 308.35 K	0.012
in acetone, 313.25 K	0.0133
in acetone, 317.85 K	0.0148
in acetone, 323.35 K	0.0169
in acetone, 328.05 K	0.0187
in aniline, 288.05 K	0.0231
in aniline, 293.25 K	0.0289
in aniline, 298.35 K	0.0347
in aniline, 302.95 K	0.0419
in aniline, 308.45 K	0.0487
in aniline, 313.15 K	0.0559
in aniline, 318.15 K	0.0623
in aniline, 323.45 K	0.0693
in aniline, 328.15 K	0.076
in aniline, 333.35 K	0.0825
in ethanol, 288.35 K	0.0193
in ethanol, 294.05 K	0.0213
in ethanol, 298.75 K	0.0237
in ethanol, 303.15 K	0.0266
in ethanol, 308.25 K	0.0306
in ethanol, 313.35 K	0.0349
in ethanol, 318.35 K	0.0409
in ethanol, 323.35 K	0.0492
in ethanol, 328.35 K	0.0602
in ethanol, 333.15 K	0.0713
in ethyl acetate, 288.45 K	0.00228
in ethyl acetate, 293.15 K	0.00275
in ethyl acetate, 298.65 K	0.00324
in ethyl acetate, 302.75 K	0.00383
in ethyl acetate, 307.15 K	0.00434
in ethyl acetate, 312.95 K	0.00522
in ethyl acetate, 318.65 K	0.00588
in ethyl acetate, 322.65 K	0.00665
in ethyl acetate, 328.25 K	0.00738
in ethyl acetate, 332.35 K	0.00813
in isopropanol, 288.15 K	0.0122
in isopropanol, 298.15 K	0.0172
in isopropanol, 303.55 K	0.0203
in isopropanol, 308.45 K	0.0233
in isopropanol, 312.85 K	0.0277
in isopropanol, 317.75 K	0.0315
in isopropanol, 323.25 K	0.0373
in isopropanol, 328.05 K	0.0412
in isopropanol, 332.95 K	0.0465
in methanol, 288.15 K	0.0356
in methanol, 293.05 K	0.0398
in methanol, 298.15 K	0.0455
in methanol, 303.25 K	0.052
in methanol, 308.15 K	0.0596
in methanol, 313.15 K	0.0675
in methanol, 318.25 K	0.076
in methanol, 323.55 K	0.0865
in methanol, 328.15 K	0.0981
in n-butanol, 289.35 K	0.0105
in n-butanol, 293.35 K	0.0126
in n-butanol, 298.05 K	0.017
in n-butanol, 303.15 K	0.0218
in n-butanol, 308.15 K	0.0267
in n-butanol, 313.15 K	0.0324
in n-butanol, 318.05 K	0.0371
in n-butanol, 322.65 K	0.042
in n-butanol, 327.95 K	0.0469
in n-butanol, 332.95 K	0.0519
in n-propanol, 288.45 K	0.0161
in n-propanol, 293.05 K	0.0185
in n-propanol, 298.35 K	0.022
in n-propanol, 302.85 K	0.0255
in n-propanol, 308.15 K	0.0293
in n-propanol, 313.05 K	0.0351
in n-propanol, 318.35 K	0.0401
in n-propanol, 322.95 K	0.0461
in n-propanol, 327.95 K	0.0519
in n-propanol, 333.15 K	0.0602
